# Test results from patent US20070197452A1, “Treatment of amyloid-related diseases” (priority 2006, published 2007).
# Entries after “also recorded” stand apart in the source; their conditions may differ.
# Experiments:
# APP = assay: Analysis of APP in brain (western blot); format: in vivo, mouse; conditions: treated TgCRND8 mice
# Experimental: Analysis of APP in brain. Mouse hemi-brain samples were homogenized and spun at 109,000×g, in 20 mM Tris pH7.4,0.25M sucrose, 1 mM EDTA and 1 mM EGTA, and a protease inhibitor cocktail, mixed with 0.4% DEA (diethylamine)/100 mM NaCl. The supernatants were analysed for APPs levels by Western blotting using mAb 22C11, while the pellets were analysed for APP holoprotein with mAb C1/6.1 as previously described.
# Analysis of APP processing. Mouse hemi-brain samples were homogenized and spun at 109,000 g, in 20 mM Tris pH 7.4, 0.25 M sucrose, 1 mM EDTA and 1 mM EGTA, and a protease inhibitor cocktail, mixed with a mixture of 0.4% DEA (diethylamine) and 100 mMNaCl. The supernatants were analyzed for APP levels by western blotting using the monoclonal antibody 22C11, and the pellets were analyzed for APP holoprotein with the monoclonal antibody C1/6.1 as previously described. […] The target protein was probed with polyclonal APP C-terminal fragment-specific antibody (Sigma) by western blotting.
# [1] = tested on: transgenic TauP301L mouse model of frontotemporal dementia; assay: Astrogliosis in transgenic TauP301L mice; format: in vivo; conditions: transgenic Tau (P301L) mice
# Experimental: Gliosis Quantitation. Five randomly selected, evenly spaced, sagittal sections were collected from paraformaldehyde-fixed and frozen hemispheres of treated and control mice. Sections were immunolabelled for astrocytes with anti-rat GFAβ IgG2a (Dako; diluted 1:50) and for microglia with anti-rat CD68 IgG2b (Dako; 1:50). Digital images were captured using a Coolsnap digital camera (Photometrics, Tuscon, Ariz.) mounted to a Zeiss, Axioscope 2 Plus microscope. Images were analysed using Openlab 3.08 imaging software (Improvision, Lexington Mass.). Quantification of gliosis. Five randomly selected, evenly spaced sagittal sections from paraformaldehyde-fixed and frozen hemispheres of treated and control mice were collected. Sections were immunolabeled for astrocytes with an antibody against rat GFAβ IgG2a (Dako; diluted 1:50) and for microglia with an antibody to rat CD68 IgG2b (Dako; 1:50). Digital images were captured using a Coolsnap digital camera (Photometrics) mounted to a Zeiss, Axioscope 2 Plus microscope. Images were analyzed using Openlab 3.08 imaging software (Improvision).
# TgCRND8 mice = assay: Accelerating rotarod, sensorimotor function; format: in vivo, mouse; conditions: treated vs untreated TgCRND8 mice and non-Tg littermates
# Experimental: Behavioural tests: Morris Water Maze testing was performed as previously described. After non-spatial pre-training, mice underwent place discrimination training for 5 days with 4-trials per day, followed by a cued visible platform to rule out general motivational, learning deficits and motor problems, and a probe trial to evaluate memory. […] Open field test for motor activity was preformed as described previously. Duration of walking, pausing and grooming were analyzed as indices of spontaneous locomotor activity. Sensorimotor function was examined with an Economex™ accelerating rotarod (Columbus Instruments, Columbus, Ohio), as described elsewhere. The rod was set to accelerate at a rate of 0.2 r.p.m./s, from an initial, constant speed of 5 r.p.m. Latency to fall was recorded in four daily trials, conducted at 30 min intervals. All mice were trained for seven days before testing. The test day performance score for each animal was obtained by summing its latency to fall over the four trials
# Behavioral tests. Morris water maze testing was carried out as previously described. […] Sensorimotor function was assessed with an Economex accelerating rotarod (Columbus Instruments) as previously described.
# Duration of walking, pausing and grooming were analyzed as indices of spontaneous locomotor activity. […] Latency to fall was recorded in four daily trials, conducted at 30 min intervals. […]
# Aβ oligomeric species = molecular target: T1, Aβ oligomeric species (Homo sapiens, UniProt P05067); assay: Western blot of soluble brain fractions for Aβ species; format: in vivo, mouse
# T1 construct: from tissue; host or cells: soluble fraction of hemi-brain homogenates of TgCRND8 transgenic mice
# T1 sequence (P05067 672-713 limits assumed): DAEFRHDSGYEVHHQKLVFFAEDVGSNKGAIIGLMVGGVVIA
# Experimental: Soluble Aβ oligomer analyses. Levels of soluble Aβ oligomers were measured by a dot-blot assay with oligomer-specific antibodies on all brain homogenates from all experimental groups. Soluble oligomers were also examined by western blot analyses.
# Samples were centrifuged (100,000 g, 20 min, 4° C.), supernatant collected and frozen at −80° C. until use. Proteins (20 μg) were separated by SDS-PAGE on a 10-20% Tris-Tricine gel, transferred to a nitrocellulose membrane, blocked for 1 h at room temp with 8% non-fat milk and incubated overnight with anti-Aβ (6E10; 1:2,500). Membranes were rinsed with TBST, exposed to anti-mouse (1:5,000) for 1 h at room temperature, washed with TBST (6×10 min) and developed using enhanced chemiluminescence. Blots were stripped and re-probed with either anti-APP (22C11; 1:1,000) or anti-GAPDH (1:10,000) to confirm equal protein loading.
# [2] = tested on: transgenic TauP301L mouse model; assay: Synaptophysin quantification in TgTauP301L mice; format: in vivo; conditions: TgTauP301L mice after treatment
# Experimental: Synaptophysin immunohistochemical staining was performed on 3 evenly spaced saggital sections of paraformaldehyde-fixed treated and control mice. Sections were immunolabelled for synaptophysin with anti-synaptophysin IgG (1:40; Roche, Laval, PQ). Digital images were captured and analyzed as described above. Within each section, three randomly chosen 100 μm2 areas of the CA1 region of the hippocampus were counted for synaptophysin reactive cell bodies and boutons. The results are expressed as the mean of the number of reactive bodies and boutons per 100 μm2 [33, 34].
# Synaptophysin quantification. Immunohistochemical staining was carried out for synaptophysin on three evenly spaced sagittal sections of paraformaldehyde-fixed treated and control mice. Sections were immunolabeled for synaptophysin with synaptophysin-specific IgG (1:40; Roche). Digital images were captured and analyzed as described above. Within each section, three randomly chosen 100 μm2 areas of the CA1 region of the hippocampus were counted for synaptophysin-reactive cell bodies and boutons. The results are expressed as the mean of the number of reactive bodies and boutons per 100 μm2 [33, 34].
# [3] = 4-month-old TgCRND8 mice, treated (n=4) vs untreated (n=4)
# [4] = 4-month-old treated vs untreated TgCRND8 mice, densitometry
compound,measurement,setting,value
"OC1C(O)C(O)C(O)C(O)C1O (centres unmarked) [scyllo-cyclohexanehexol, 1,3,5/2,4,6-(scyllo-) cyclohexanehexol]","levels of APP holoprotein, APP glycosylation, APPs-α, APPs-β in brain homogenates",APP,no effect
same,astrogliosis,[1],did not prevent the astrogliosis
same,astrogliosis,[1]; listed as Scyllo-cyclohexanehexol,no effect
same,rotarod sensorimotor function,TgCRND8 mice,no difference; also recorded: indistinguishable
same,high-molecular-weight Aβ species,Aβ oligomeric species; [3],decrease in high-molecular-weight Aβ species
same,smaller Aβ oligomers,Aβ oligomeric species; [3],increase in smaller oligomers
same,increase in low-molecular-weight trimeric Aβ species,Aβ oligomeric species; [4],282±5%
same,reduction of high-molecular-weight Aβ oligomeric species,Aβ oligomeric species; [4],25±4.5%
same,synaptophysin reactivity / synaptic loss,[2],unchanged
same,synaptophysin reactivity / synaptic loss,[2]; listed as AZD-103,unchanged
same,synaptophysin reactivity / synaptic loss,[2]; listed as scyllocyclohexanehexol,no effect on synaptic loss
